How the values were obtained:
Details in all cases: 0.1 µM; binder
[1] = molecular target: IKK-alpha (Homo sapiens, UniProt O15111)
[2] = molecular target: p38-delta (Homo sapiens, UniProt O15264)
[3] = molecular target: VEGFR2 (Homo sapiens, UniProt P35968)
[4] = molecular target: LIMK2 (Homo sapiens, UniProt P53671)
[5] = molecular target: PDGFRB (Homo sapiens, UniProt P09619)
[6] = molecular target: JNK1 (Homo sapiens, UniProt P45983)
[7] = molecular target: PKMYT1 (Homo sapiens, UniProt Q99640)
[8] = molecular target: PAK7 (Homo sapiens, UniProt Q9P286)
[9] = molecular target: NEK5 (Homo sapiens, UniProt Q6P3R8)
[10] = molecular target: ULK2 (Homo sapiens, UniProt Q8IYT8)
[11] = molecular target: NLK (Homo sapiens, UniProt Q9UBE8)
[12] = molecular target: SIK2 (Homo sapiens, UniProt Q9H0K1)
[13] = molecular target: PNCK (Homo sapiens, UniProt Q6P2M8)
[14] = molecular target: ERK4 (Homo sapiens, UniProt P31152)
[15] = molecular target: DMPK2 (Homo sapiens, UniProt Q6DT37)
[16] = molecular target: PHKG2 (Homo sapiens, UniProt P15735)
[17] = molecular target: BLK (Homo sapiens, UniProt P51451)
[18] = molecular target: CDKL5 (Homo sapiens, UniProt O76039)
[19] = molecular target: RIPK2 (Homo sapiens, UniProt O43353)
[20] = molecular target: HIPK4 (Homo sapiens, UniProt Q8NE63)
[21] = molecular target: CAMKK1 (Homo sapiens, UniProt Q8N5S9)
[22] = molecular target: MST4 (Homo sapiens, UniProt Q9P289)
[23] = molecular target: MAP3K2 (Homo sapiens, UniProt Q9Y2U5)
[24] = molecular target: PIM1 (Homo sapiens, UniProt P11309)
[25] = molecular target: MAP3K3 (Homo sapiens, UniProt Q99759)
[26] = molecular target: PIP5K1A (Homo sapiens, UniProt Q99755)
[27] = molecular target: PRKCQ (Homo sapiens, UniProt Q04759)
[28] = molecular target: ROCK2 (Homo sapiens, UniProt O75116)
[29] = molecular target: SGK2 (Homo sapiens, UniProt Q9HBY8)
[30] = molecular target: STK39 (Homo sapiens, UniProt Q9UEW8)
[31] = molecular target: ALK(L1196M) (Homo sapiens, UniProt Q9UM73, L1196M)
[32] = molecular target: DAPK1 (Homo sapiens, UniProt P53355)

Chain of MAP3K2 (Q9Y2U5 whole entry): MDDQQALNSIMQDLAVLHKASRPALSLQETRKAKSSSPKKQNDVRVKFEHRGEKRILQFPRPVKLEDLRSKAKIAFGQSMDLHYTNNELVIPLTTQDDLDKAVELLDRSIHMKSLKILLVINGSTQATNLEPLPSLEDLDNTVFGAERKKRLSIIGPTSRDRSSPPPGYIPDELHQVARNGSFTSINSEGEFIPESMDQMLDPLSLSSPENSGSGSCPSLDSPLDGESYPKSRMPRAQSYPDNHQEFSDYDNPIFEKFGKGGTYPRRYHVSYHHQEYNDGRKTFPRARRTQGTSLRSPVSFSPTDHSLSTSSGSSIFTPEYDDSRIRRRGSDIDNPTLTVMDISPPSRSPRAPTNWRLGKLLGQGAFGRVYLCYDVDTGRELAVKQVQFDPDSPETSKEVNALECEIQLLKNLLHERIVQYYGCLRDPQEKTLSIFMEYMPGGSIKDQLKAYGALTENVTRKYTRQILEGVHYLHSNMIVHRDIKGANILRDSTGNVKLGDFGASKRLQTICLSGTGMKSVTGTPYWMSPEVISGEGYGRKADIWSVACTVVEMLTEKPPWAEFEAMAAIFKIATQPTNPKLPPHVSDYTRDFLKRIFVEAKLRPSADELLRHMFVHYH
Chain of PDGFRB (P09619 whole entry): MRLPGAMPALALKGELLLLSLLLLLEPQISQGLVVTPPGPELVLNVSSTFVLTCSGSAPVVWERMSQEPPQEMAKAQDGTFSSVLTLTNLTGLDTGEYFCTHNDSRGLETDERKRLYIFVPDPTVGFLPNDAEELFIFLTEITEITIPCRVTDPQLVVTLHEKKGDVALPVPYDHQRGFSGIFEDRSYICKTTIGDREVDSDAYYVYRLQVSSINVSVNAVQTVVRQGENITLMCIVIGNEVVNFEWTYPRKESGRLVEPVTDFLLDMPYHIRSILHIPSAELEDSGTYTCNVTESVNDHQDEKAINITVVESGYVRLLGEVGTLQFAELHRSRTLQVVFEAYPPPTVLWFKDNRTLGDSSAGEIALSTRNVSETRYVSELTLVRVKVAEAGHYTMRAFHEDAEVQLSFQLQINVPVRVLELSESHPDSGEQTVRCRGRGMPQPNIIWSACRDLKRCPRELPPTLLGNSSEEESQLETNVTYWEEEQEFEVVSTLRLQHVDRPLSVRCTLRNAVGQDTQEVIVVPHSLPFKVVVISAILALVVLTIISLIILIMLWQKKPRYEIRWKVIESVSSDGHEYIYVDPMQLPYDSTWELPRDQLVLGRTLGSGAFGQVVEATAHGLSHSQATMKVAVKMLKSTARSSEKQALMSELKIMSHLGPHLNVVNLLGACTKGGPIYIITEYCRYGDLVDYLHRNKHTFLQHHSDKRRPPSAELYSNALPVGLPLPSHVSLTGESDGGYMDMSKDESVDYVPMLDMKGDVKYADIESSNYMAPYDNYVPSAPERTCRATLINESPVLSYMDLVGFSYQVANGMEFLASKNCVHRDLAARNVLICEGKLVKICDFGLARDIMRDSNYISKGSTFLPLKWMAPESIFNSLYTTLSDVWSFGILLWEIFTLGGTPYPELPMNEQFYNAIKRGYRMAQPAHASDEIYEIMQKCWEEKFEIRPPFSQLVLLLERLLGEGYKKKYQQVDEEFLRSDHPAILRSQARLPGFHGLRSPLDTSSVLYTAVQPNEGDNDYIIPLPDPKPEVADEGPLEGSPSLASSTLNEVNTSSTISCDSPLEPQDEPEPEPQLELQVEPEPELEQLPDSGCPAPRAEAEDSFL
Chain of ROCK2 (O75116 whole entry): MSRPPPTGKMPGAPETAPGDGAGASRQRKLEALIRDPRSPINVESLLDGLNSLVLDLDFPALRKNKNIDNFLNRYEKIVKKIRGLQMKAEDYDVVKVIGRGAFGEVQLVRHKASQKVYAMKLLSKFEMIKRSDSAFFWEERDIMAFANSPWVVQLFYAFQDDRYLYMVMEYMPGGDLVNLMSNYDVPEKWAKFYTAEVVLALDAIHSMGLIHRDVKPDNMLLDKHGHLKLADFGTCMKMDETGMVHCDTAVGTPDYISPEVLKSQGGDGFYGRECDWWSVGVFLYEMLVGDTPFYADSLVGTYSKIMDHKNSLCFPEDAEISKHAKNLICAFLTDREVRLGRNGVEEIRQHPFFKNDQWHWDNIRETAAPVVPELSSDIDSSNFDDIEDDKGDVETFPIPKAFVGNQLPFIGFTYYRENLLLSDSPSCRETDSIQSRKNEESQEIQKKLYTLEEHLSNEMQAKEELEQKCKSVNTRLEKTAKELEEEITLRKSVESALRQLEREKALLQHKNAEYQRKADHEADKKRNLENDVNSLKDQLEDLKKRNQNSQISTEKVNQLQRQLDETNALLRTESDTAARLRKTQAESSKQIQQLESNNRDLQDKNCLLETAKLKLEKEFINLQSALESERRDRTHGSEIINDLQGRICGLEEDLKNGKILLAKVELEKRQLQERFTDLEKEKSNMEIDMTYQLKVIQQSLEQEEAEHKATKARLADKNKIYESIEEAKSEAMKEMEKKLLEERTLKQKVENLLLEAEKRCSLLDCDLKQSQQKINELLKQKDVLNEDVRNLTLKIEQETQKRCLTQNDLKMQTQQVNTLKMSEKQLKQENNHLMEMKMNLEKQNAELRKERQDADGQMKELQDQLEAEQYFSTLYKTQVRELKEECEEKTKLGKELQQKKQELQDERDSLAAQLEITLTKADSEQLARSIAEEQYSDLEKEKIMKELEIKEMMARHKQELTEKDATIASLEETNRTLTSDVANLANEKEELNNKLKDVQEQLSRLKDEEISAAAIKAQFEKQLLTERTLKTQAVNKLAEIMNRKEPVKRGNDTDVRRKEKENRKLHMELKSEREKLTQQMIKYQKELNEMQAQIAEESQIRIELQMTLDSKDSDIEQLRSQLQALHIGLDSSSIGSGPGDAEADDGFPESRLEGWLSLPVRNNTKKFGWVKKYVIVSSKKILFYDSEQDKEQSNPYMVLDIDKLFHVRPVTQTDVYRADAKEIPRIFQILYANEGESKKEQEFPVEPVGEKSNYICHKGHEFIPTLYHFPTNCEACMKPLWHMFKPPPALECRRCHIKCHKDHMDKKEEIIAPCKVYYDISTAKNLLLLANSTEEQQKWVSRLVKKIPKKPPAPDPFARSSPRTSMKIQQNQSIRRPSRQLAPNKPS
Chain of PRKCQ (Q04759 whole entry): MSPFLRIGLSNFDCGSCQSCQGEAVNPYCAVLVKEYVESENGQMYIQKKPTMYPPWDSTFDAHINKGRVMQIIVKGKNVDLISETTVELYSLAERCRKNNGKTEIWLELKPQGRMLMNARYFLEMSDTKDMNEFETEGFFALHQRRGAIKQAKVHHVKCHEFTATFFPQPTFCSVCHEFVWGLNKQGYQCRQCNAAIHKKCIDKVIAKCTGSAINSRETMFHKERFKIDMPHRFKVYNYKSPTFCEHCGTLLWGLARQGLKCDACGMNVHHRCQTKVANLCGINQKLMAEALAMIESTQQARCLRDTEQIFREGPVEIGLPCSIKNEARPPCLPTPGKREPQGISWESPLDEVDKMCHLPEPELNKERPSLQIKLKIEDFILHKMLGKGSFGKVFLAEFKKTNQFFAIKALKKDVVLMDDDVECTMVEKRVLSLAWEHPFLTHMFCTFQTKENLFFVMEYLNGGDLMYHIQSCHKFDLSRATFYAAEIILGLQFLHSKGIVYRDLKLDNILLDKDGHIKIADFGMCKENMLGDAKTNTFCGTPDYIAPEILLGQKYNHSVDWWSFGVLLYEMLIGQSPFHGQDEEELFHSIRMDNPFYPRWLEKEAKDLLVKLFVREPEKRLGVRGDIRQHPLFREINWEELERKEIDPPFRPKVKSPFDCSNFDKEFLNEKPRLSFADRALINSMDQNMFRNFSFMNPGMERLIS
Chain of CDKL5 (O76039 whole entry): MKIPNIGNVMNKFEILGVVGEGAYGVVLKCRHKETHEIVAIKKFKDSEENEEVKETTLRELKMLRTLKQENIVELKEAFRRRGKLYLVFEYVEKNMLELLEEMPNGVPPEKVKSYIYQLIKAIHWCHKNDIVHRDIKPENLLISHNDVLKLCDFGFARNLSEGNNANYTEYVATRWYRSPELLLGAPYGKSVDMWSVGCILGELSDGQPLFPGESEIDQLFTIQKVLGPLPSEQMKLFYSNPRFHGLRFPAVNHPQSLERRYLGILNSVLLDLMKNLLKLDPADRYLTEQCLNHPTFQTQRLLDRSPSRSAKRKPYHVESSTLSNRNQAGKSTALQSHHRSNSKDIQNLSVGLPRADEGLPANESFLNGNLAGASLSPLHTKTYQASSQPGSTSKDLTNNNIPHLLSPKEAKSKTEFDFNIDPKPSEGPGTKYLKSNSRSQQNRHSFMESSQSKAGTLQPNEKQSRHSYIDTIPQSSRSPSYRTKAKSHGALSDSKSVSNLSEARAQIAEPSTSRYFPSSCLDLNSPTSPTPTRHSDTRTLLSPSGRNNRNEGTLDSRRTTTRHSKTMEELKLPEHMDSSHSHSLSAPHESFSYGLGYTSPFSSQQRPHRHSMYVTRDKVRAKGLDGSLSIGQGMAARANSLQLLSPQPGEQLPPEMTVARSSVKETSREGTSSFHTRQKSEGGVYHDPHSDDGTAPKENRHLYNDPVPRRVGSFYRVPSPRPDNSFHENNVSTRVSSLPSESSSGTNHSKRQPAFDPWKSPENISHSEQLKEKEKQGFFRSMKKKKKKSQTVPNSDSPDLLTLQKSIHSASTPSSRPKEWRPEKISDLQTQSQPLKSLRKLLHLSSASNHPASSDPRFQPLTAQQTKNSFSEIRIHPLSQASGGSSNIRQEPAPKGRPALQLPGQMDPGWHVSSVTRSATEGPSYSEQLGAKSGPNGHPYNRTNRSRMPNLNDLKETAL
Chain of PIM1 (P11309 whole entry): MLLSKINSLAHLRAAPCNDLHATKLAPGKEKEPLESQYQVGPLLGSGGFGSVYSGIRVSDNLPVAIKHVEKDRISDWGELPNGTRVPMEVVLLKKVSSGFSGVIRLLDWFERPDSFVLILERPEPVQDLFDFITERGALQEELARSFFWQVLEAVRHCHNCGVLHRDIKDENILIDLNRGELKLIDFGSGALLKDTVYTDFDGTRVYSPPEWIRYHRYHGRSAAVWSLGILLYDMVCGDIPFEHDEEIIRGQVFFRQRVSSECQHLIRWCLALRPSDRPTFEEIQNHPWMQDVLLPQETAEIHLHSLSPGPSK

Structure (SMILES): CNc1ncc2cc(-c3ccc(-c4cccc(C)n4)cc3Cl)c(=O)n(C[C@H]3OC[C@H](N)CO3)c2n1 [compound 6, G-5555]
- Percent Control [1]: 92%
- Percent Control [2]: 86%
- Percent Control [3]: 98%
- Percent Control [4]: 100%
- Percent Control [5]: 97%
- Percent Control [6]: 80%
- Percent Control [7]: 100%
- Percent Control [8]: 100%
- Percent Control [9]: 100%
- Percent Control [10]: 100%
- Percent Control [11]: 73%
- Percent Control [12]: 6.5%
- Percent Control [13]: 97%
- Percent Control [14]: 100%
- Percent Control [15]: 89%
- Percent Control [16]: 100%
- Percent Control [17]: 100%
- Percent Control [18]: 82%
- Percent Control [19]: 100%
- Percent Control [20]: 95%
- Percent Control [21]: 100%
- Percent Control [22]: 0.5%
- Percent Control [23]: 97%
- Percent Control [24]: 100%
- Percent Control [25]: 86%
- Percent Control [26]: 48%
- Percent Control [27]: 81%
- Percent Control [28]: 94%
- Percent Control [29]: 100%
- Percent Control [30]: 100%
- Percent Control [31]: 100%
- Percent Control [32]: 100%

From publication doi:10.1101/2021.04.08.439011v1 (biorxiv, 2021)
